The values below come from patent US20250263408A1 (Uniquest Pty Ltd, priority 2022, published 2025).

One series addresses T1, Syk (Homo sapiens, UniProt P43405).
T1 construct: purchased Promega
The series can be described thus: Syk Biochemical Assay (ADP-Glo luminescence). The following applies: ATP 40 μM final, 60 minutes, read-out: SYK Biochem IC50. (ADP-Glo first removes unused ATP, then detects ADP through luciferase.)

A further series deals with T2, Ba/F3-Syk cells (Homo sapiens, UniProt P43405).
T2 construct: fused on or other part: Possible but unprinted fusion partner: TEL (ETV6), the usual partner for Ba/F3 lines transformed by Syk; Nothing on a partner is printed
The series can be described thus: Ba/F3 Proliferation Assay, Ba/F3-Syk cells (Resazurin). Format: cell-based. The following applies: 48-hour incubation. On the technique in general: Resazurin is reduced to fluorescent resorufin, in cell work by metabolically active cells.

The subject of series [1] is Ba/F3-WT (wild type) cells. Kind of series: Ba/F3 Proliferation Assay, Ba/F3-WT (wild type) cells with mIL-3 (Resazurin). Format: cell-based. The following applies: Mus musculus, BaF3, 48 h, Ba/F3-WT cells +mIL-3, 48-hour incubation.
The subject of the next series is MDR1 (Pgp). Kind of series: Permeability Assay, bi-directional flux in MDCKII-MDR1 cells. Format: in vitro ADME, canine. The following applies: dog; for Papp at 2 h, 10 PM: MDCK-MDR1, 2 hours at 37° C., concentration printed as 10 PM; for efflux ratio at 2 h, 10 PM: MDCK-MDR1, ratio >2 indicates the compound is effluxed, read-out: efflux ratio (PappB-A/PappA-B). As to the method:
The assay was performed using Charles River/Agilux default assay conditions and default acetonitrile extraction and bioanalytical conditions. The assay was performed using MDCKII-MDR1 (Pgp) cells (canine MDCK stably transfected with MDR1). Bi-directional (A-B and B-A) flux measurements were carried out in triplicate aliquots from duplicate wells. The compounds were incubated for 2 hours at 37° C. at a concentration of 10 PM. The efflux ratio is the ratio of PappB-A/PappA-B, and a ratio >2 indicates the compound is effluxed.

The nature of series [2]: Brain Penetration Assays: Mouse Pharmacokinetics (plasma and brain levels after oral dose). Format: in vivo. The following applies: male, CD-1, mouse, mice, 1 hour post oral dose of 10 mg/kg; for concentration at 1 h: brain (free, unbound); for Kp at 1 h: brain / plasma (unbound), read-out: Kpu,u (ratio of unbound brain levels to unbound plasma levels). As to the method:
Male CD-1 mice (6-8 weeks of age, 3 animals per timepoint) were dosed via oral gavage (10 mL/kg) with compound (10 mg/kg, 0.5% methylcellulose in water). Blood samples were taken either non-terminal via saphenous vein or terminal via cardiac puncture and stored in 1.5 mL Eppendorf tubes containing 0.010 mL of 10% K2EDTA, mixed gently and placed in ice before centrifugation. Blood was centrifuged at 10,000 r.p.m. for 2 minutes, plasma harvested and stored at −80° C. Following blood collection at the terminal time points, animals were sacrificed with C02 and brains quickly removed, rinsed with cold saline (0.9% NaCl), surface vasculature ruptured, blotted with dry gauze or tissue and weighed. The whole brain was homogenized in 1.0 mL ice cold phosphate-buffered saline, pH 7.4 and the homogenates stored at −80° C. Compound concentrations were quantified in plasma and brain tissue by LC-MS/MS using a partially validated bioanalytical method.
The Rapid Equilibrium Dialysis (RED) method was employed with plasma (200 μL, BioIVT, USA) in phosphate buffered saline (PBS, 350 μL) incubated with compound (1 μM) at 37° C. for 5 hours shaking at 450 r.p.m. Acetonitrile (3 volumes) was added and the sample centrifuged for 5 minutes and 1050 r.p.m. then for 15 minutes at 4000 r.p.m. Compound concentrations were quantified via LC-MS/MS from supernatant and free drug was calculated.
The RED method was employed with mouse brain homogenate (10% w/v prepared in-house)) incubated with compound (1 μM) at 37° C. for 5 hours shaking at 450 r.p.m. Acetonitrile (3 volumes) was added and the sample centrifuged for 5 minutes and 1050 r.p.m. then for 14 minutes at 4000 r.p.m. Compound concentrations were quantified via LC-MS/MS from supernatant and free drug was calculated.

Consider `Cn1ccc(-c2cc3ncccc3c(OC[C@@H]3CNCCO3)n2)c1` [Compound 2.20, 7-(1-methyl-1H-pyrrol-3-yl)-5-{[(2S)-morpholin-2-yl]methoxy}-1,6-naphthyridine], for which the half-inhibitory concentration (IC50) at Syk was determined as 37.8 nM. On Ba/F3-Syk cells, it took 87.5 nM to reach a half-maximal effect (EC50). Moreover, the 50% effective concentration (EC50) in series [1] amounted to 4170 nM. Moreover, in the series with MDR1 (Pgp), the Papp at 2 h, 10 PM was above 20 ×10⁻⁶ cm/s and the efflux ratio at 2 h, 10 PM is at most 1. In series [2], the concentration at 1 h was above 25 nM and the Kp at 1 h was in the range of 0.2 to 0.3.
Turning to `CC1(C)CNC[C@@H](COc2nc(-c3cnn(C(C)(C)C)c3)cc3ncccc23)O1` [Compound 2.42, 7-(1-tert-butyl-1-pyrazol-4-yl)-5-{[(2S)-6,6-dimethylmorpholin-2-yl]methoxy}-1,6-naphthyridine], the IC50 on Syk is 12.2 nM. The EC50 on Ba/F3-Syk cells is 12.5 nM. Besides, a half-maximal effect in series [1] (EC50) was put at 2340 nM. For the same compound, in the series with MDR1 (Pgp), the Papp at 2 h, 10 PM was above 20 ×10⁻⁶ cm/s and the efflux ratio at 2 h, 10 PM was at most 1. Further, in series [2], the concentration at 1 h is above 25 nM and the Kp at 1 h was 0.1 to 0.2.
As to `C[C@@H](Oc1nc(-c2ccn(C)c2)cc2ncccc12)[C@@H]1CNCCO1` [Compound 2.44, 7-(1-methyl-1H-pyrrol-3-yl)-5-[(1R)-1-[(2S)-morpholin-2-yl]ethoxy]-1,6-naphthyridine], at Syk, the IC50 is 31 nM. For the same compound, the EC50 at Ba/F3-Syk cells was 53.1 nM. For the same compound, in series [1], the EC50 came to 2110 nM. For the same compound, in series [2], the concentration at 1 h is at most 10 nM and the Kp at 1 h is above 0.3.
The corresponding values for `Cn1ccc(-c2cc3ncccc3c(OC[C@@H]3CNCC(C)(C)O3)n2)c1` [Compound 2.51, 5-{[(2S)-6,6-dimethylmorpholin-2-yl]methoxy}-7-(1-methyl-1H-pyrrol-3-yl)-1,6-naphthyridine] are 8.1 nM, 45.5 nM, 6070 nM, at most 25 nM and above 0.3.
For `Cn1cc(-c2cc3ncccc3c(OC[C@@H]3CNCC4(CCC4)O3)n2)cn1` [Compound 2.55, 7-(1-methyl-1H-pyrazol-4-yl)-5-{[(6S)-5-oxa-8-azaspiro[3.5]nonan-6-yl]methoxy}-1,6-naphthyridine] the same measures were 29.7 nM, 43.8 nM, 3270 nM, above 25 nM and 0.05 to 0.1.
Regarding `CC(C)n1cc(-c2cc3ncccc3c(O[C@H](C)[C@@H]3CNCCO3)n2)cn1` [Compound 2.66, 5-[(1R)-1-[(2S)-morpholin-2-yl]ethoxy]-7-[1-(propan-2-yl)-1H-pyrazol-4-yl]-1,6-naphthyridine], at Ba/F3-Syk cells, the EC50 came to 14.5 nM. The EC50 in series [1] was 1020 nM. Besides, in series [2], the concentration at 1 h is at most 25 nM and the Kp at 1 h lay within 0.05 to 0.1.
For `C[C@@H](Oc1nc(-c2cnn(C(C)(C)C)c2)cc2ncccc12)[C@@H]1CNCCO1` [Compound 2.67, 7-(1-tert-butyl-1H-pyrazol-4-yl)-5-[(1R)-1-[(2S)-morpholin-2-yl]ethoxy]-1,6-naphthyridine], the IC50 at Syk stood at 29.5 nM. At Ba/F3-Syk cells, this compound displayed an EC50 of 18.6 nM. Besides, in series [1], the EC50 came to 1860 nM. In addition, in series [2], the concentration at 1 h was at most 25 nM and the Kp at 1 h was 0.1 to 0.2.
`Cn1ccc(-c2cc(OC[C@@H]3CNCCO3)c3cccnc3c2)c1` [Compound 3.1, 7-(1-methyl-1H-pyrrol-3-yl)-5{-[(2S)-morpholin-2-yl]methoxy}quinoline]: the IC50 on Syk came out at 48.1 nM. Also, at Ba/F3-Syk cells, a half-maximal effect (EC50) was put at 78.2 nM. In series [1], this compound registered an EC50 of 2660 nM. In the series on MDR1 (Pgp), the Papp at 2 h, 10 PM lay in the range of 15 to 20 ×10⁻⁶ cm/s and the efflux ratio at 2 h, 10 PM was at most 1. In addition, the Kp at 1 h in series [2] was 0.1 to 0.2.
As to `CC(C)n1cc(-c2cc(OC[C@@H]3CNCC(C)(C)O3)c3cccnc3c2)cn1` [Compound 3.6, 5-{[(2S)-6,6-dimethylmorpholin-2-yl]methoxy}-7-[1-(propan-2-yl)-1H-pyrazol-4-yl]quinoline], the IC50 at Syk was 10.6 nM. The compound further gave an EC50 at Ba/F3-Syk cells of 23.3 nM. Also, the response in series [1] was half-maximal at 2120 nM (EC50). For the same compound, in the series with MDR1 (Pgp), the Papp at 2 h, 10 PM was 15 to 20 ×10⁻⁶ cm/s and the efflux ratio at 2 h, 10 PM was 1 to 2. Also, in series [2], the concentration at 1 h was at most 25 nM and the Kp at 1 h was in the range of 0.05 to 0.1.
As for `Cn1ccc(-c2cc(OC[C@@H]3CNCC(C)(C)O3)c3cccnc3c2)c1` [Compound 3.10, 5-{[(2S)-6,6-dimethylmorpholin-2-yl]methoxy}-7-(1-methyl-1H-pyrrol-3-yl)quinoline], at Syk, the IC50 is 35 nM. Further, the EC50 was 53.2 nM on Ba/F3-Syk cells and 4610 nM in series [1]. In series [2], this compound returned a concentration at 1 h above 25 nM. The Kp at 1 h in series [2] lay in the range of 0.2 to 0.3.
As to `CC(C)n1ccc(-c2cc3ncccc3c(OC[C@@H]3CNCCO3)n2)c1` [Compound 6.2, 5-{[(2S)-morpholin-2-yl]methoxy}-7-[1-(propan-2-yl)-1H-pyrrol-3-yl]-1,6-naphthyridine], the IC50 on Syk was 16 nM. On Ba/F3-Syk cells, this compound gave an EC50 of 35.6 nM. In series [1], this compound came in with an EC50 of 2550 nM. For the same compound, in the series with MDR1 (Pgp), the Papp at 2 h, 10 PM is above 20 ×10⁻⁶ cm/s and the efflux ratio at 2 h, 10 PM fell in the range of 1 to 2. Also, the Kp at 1 h in series [2] is 0.1 to 0.2.
As for `CC(C)n1ccc(-c2cc3ncccc3c(OC[C@@H]3CNCC(C)(C)O3)n2)c1` [Compound 6.9, 5-{[(2S)-6,6-dimethylmorpholin-2-yl]methoxy}-7-[1-(propan-2-yl)-1H-pyrrol-3-yl]-1,6-naphthyridine], at Syk, the 50% inhibitory concentration (IC50) was determined as 14.1 nM. Further, the EC50 on Ba/F3-Syk cells stood at 11.4 nM. Further, the EC50 in series [1] worked out at 3300 nM. Also, in the series on MDR1 (Pgp), the Papp at 2 h, 10 PM fell in the range of 15 to 20 ×10⁻⁶ cm/s and the efflux ratio at 2 h, 10 PM was at most 1. Moreover, the Kp at 1 h in series [2] lay in the range of 0.1 to 0.2.
`CCn1ccc(-c2cc3ncccc3c(OC[C@@H]3CNCC(C)(C)O3)n2)c1` [Compound 6.19, 5-{[(2S)-6,6-dimethylmorpholin-2-yl]methoxy}-7-(1-ethyl-1H-pyrrol-3-yl)-1,6-naphthyridine]: the IC50 at Syk is 11.9 nM. Moreover, the EC50 on Ba/F3-Syk cells was found to be 21.4 nM; in series [1] it was 5020 nM. In addition, in series [2], the concentration at 1 h was above 25 nM. In addition, the Kp at 1 h in series [2] lay within 0.1 to 0.2.
The corresponding values for `CCn1ccc(-c2cc3ncccc3c(OC[C@@H]3CNCCCO3)n2)c1` [Compound 6.26, 7-(1-ethyl-1H-pyrrol-3-yl)-5-{[(2S)-1,4-oxazepan-2-yl]methoxy}-1,6-naphthyridine] are 32.1 nM, 21.4 nM, above 10000 nM, at most 10 nM and 0.1 to 0.2.
The corresponding values for `CC(C)n1ccc(-c2cc3ncccc3c(O[C@H](C)[C@@H]3CNCCO3)n2)c1` [Compound 6.28, 5-[(1R)-1-[(2S)-morpholin-2-yl]ethoxy]-7-[1-(propan-2-yl)-1H-pyrrol-3-yl]-1,6-naphthyridine] are 41.8 nM, 15 nM, 2680 nM, at most 10 nM and 0.2 to 0.3.
As for `CC1(C)CNC[C@@H](COc2cc(-c3ccn(C4COC4)c3)cc3ncccc23)O1` [Compound 7.11, 5-{[(2S)-6,6-dimethylmorpholin-2-yl]methoxy}-7-[1-(oxetan-3-yl)-1H-pyrrol-3-yl]quinoline], the IC50 on Syk was 9.7 nM. The same compound showed an EC50 on Ba/F3-Syk cells of 14.4 nM. The same compound showed an EC50 in series [1] of 1700 nM. Besides, in series [2], the concentration at 1 h is at most 10 nM and the Kp at 1 h lay within 0.2 to 0.3.

What is called IC50 is the concentration that inhibits the measured activity by half. The term EC50 denotes the concentration giving half of the maximal effect. A word on the Papp: it is the rate of passage across a membrane or cell layer, normalised by area and donor concentration. Read a low Papp as slow passage.
